As a reminder, the IC50 is the concentration at which inhibition is half-maximal. Low values mean higher potency, high ones lower potency.

Entries after “also recorded” stand apart in the source; their conditions may differ.

Series [1] in a line: Cytotoxicity (IC50) on A10 cells. The settings on record: rat, A10 vascular smooth muscle cells, IC50, concentration at which the growth of the cells is inhibited by 50% (cytotoxicity), 0-500 μM, cytotoxicity under normal glucose conditions.
Protocol: (§1) The vascular smooth cell line A10 was loaded at a density of 1×10^3 cells/ml into 96-well plates and after 16 hours, the medium was replaced with a medium having a concentration of 5.5 mM or 30 mM D-glucose. Subsequently, decursin, decursinol angelate and decursinol were each applied at concentrations of 0, 20, 50, 100, 200, and 500 μM to the cells. IC50, a concentration at which the growth of the cells is inhibited by 50%, and EC100, a concentration which inhibits the growth of cells in a high sugar level environment to a normal cell population, were measured, and therapeutic indices were calculated by dividing IC50 by EC100. […] Then, effects of decursin and decursinol angelate to inhibit the proliferation of A10 cells in high glucose were expressed as EC100. EC100 refers to the concentration at which high glucose-induced proliferation of A10 cells is inhibited to normal glucose levels by the drug.
Series [2] concerns vascular smooth cell line A10. Briefly: Inhibition of high glucose-induced proliferation of A10 cells (EC100). It counts as cell-based. The settings on record: 30 mM D-glucose, 0-500 μM.
Protocol: as §1
A further series in a line: in vitro. As to conditions: rat, IC50, concentration at which the growth of the cells is inhibited by 50% (cytotoxicity).
Series [3] relates to vascular smooth muscle cell line A10. Briefly: Effect of decursinol on high sugar-induced proliferation of A10 cells (cell count). It counts as cell-based. On the procedure: The effect of decursinol on the high sugar-induced proliferation of A10 cells was investigated. […] Then, each well was treated with 25 μM of solubilized decursinol, and the cells were counted after 1, 2, and 3 days. The results are depicted in FIG. 4.

Series [4] can be described thus: Blood pressure safety test in rats after two weeks of oral administration. It counts as in vivo. The settings on record: measured the day after final administration. The text has this: The present inventors have been studying Angelica gigas Nakai for many years while observing the effect of Angelica gigas Nakai extract on blood pressure. In general, Angelica gigas Nakai is a traditional herb that has been used for food and medicine for a long time because of its excellent hematopoietic, anticancer, antioxidant, and anti-inflammatory actions. However, direct use of the Angelica gigas extract has the problem of inducing high blood pressure according to the preparation thereof. In this Example, the Angelica extracts obtained in Examples 1-1 and 1-2 and 99.9% pure decursinol of the present disclosure were administered to rats and assayed for safety for blood pressure.
Using a blood pressure analyzer (3R229 3 channel rat system, Life Science), rats were measured for blood pressure while being acclimated to blood measurement operation. When the blood pressure analyzer is being operated, laboratory rats are startled by the sound of air pressure and rise in blood pressure. In order to eliminate this effect, after adaptation by repeatedly measuring 5 times a day, the experiment was performed when the blood pressure was kept stable, and the blood pressure was regularly measured every day even during the experiment to adapt the rats to the analyzer. When measuring blood pressure, the head was covered with a handkerchief to block light for stabilization. Fifteen experimental rats were divided into 5 groups of 3 rats for the next administration experiment and measured for blood pressure. A control (physiological saline), the Angelica extracts, and decursinol were each orally administered for two weeks, and the blood pressures measured the next day after the final administration are given in Table 1.

For series [5], the system named is vascular smooth muscle cell line A10. Briefly: Cytotoxicity of decursinol, live and dead cell count. The series is classed as cell-based. The settings on record: live and dead cells counted. From the text: In order to examine the cytotoxicity of decursinol, both live and dead cells were counted. After treatment with decursinol, 98% or more of live cells were observed alive.

The subject of series [6] is phospho-protein kinase C (p-PKC). Briefly: Western blotting of phospho-PKC with a pan-phospho-PKC antibody in A10 cells. The series is classed as cell-based. The settings on record: 30 mM D-glucose, 10 and 25 μM solubilized decursinol, 24 hours. As to the method: Examination was made to see whether the inhibitory effect of decursinol on high sugar-induced proliferation of A10 cells was associated with PKC. […] Then, each well was treated with 10 and 25 μM of solubilized decursinol and incubated for 24 hours. Western blotting was carried out using a pan-phospho-PKC antibody and the results are depicted in FIG. 5.
(In western blotting, separated proteins are transferred to a membrane and probed.)

Series [7] relates to vascular smooth cell line A10. The settings on record: rat.
Protocol: as §1

Protocol for in vitro: as §1

The compound `C/C=C(/C)C(=O)O[C@H]1Cc2cc3ccc(=O)oc3cc2OC1(C)C` [Decursinol angelate, decursinol angelate] displayed an IC50 in series [1] of 124 µM. The “EC100, concentration at which high glucose-induced proliferation of A10 cells is inhibited to normal glucose levels” value in series [2] was found to be 4.4 µM.
As to `CC(C)=CC(=O)O[C@H]1Cc2cc3ccc(=O)oc3cc2OC1(C)C` [Decursin, decursin], the “EC100, concentration at which high glucose-induced proliferation of A10 cells is inhibited to normal glucose levels” value in series [2] amounted to 7.2 µM. Also, the half-maximal inhibitory concentration (IC50) in the series “in vitro” worked out at 82.7 µM.
As for `CC1(C)Oc2cc3oc(=O)ccc3cc2C[C@@H]1O` [Decursinol, decursinol], in series [3] (5.5 mM D-glucose, 25 μM solubilized decursinol, days 1-3), the “Effect on proliferation of A10 cells at normal sugar concentration” value is “did not significantly inhibit; also recorded: not affected”. Further, the “Effect on proliferation of A10 cells in high glucose” value in series [3] (30 mM D-glucose) was “significantly inhibited; also recorded: inhibited cell proliferation in a dose-dependent manner”. Further, the “Inhibition of proliferation of A10 cells in high glucose” value in series [3] (30 mM D-glucose, 25 μM solubilized decursinol, day 3) is listed as “about 20%”. Also, the “EC100, concentration at which high glucose-induced proliferation of A10 cells is inhibited to normal glucose levels” value in series [2] came to 10.1 µM. Besides, the concentration for half-maximal inhibition (IC50) in “in vitro” was at least 500 µM; in series [7], over 500 µM. For the same compound, the Diastolic blood pressure stood at 91 mmHg in series [4] (0.5 mg/kg), 92 mmHg in series [4] (1.0 mg/kg), 92 mmHg in series [4] (2.0 mg/kg) and 90 mmHg in series [4] (5.0 mg/kg). The Systolic blood pressure in series [4] (0.5 mg/kg) is listed as 110 mmHg; in series [4] (1.0 mg/kg), 110 mmHg; in series [4] (2.0 mg/kg) it was 117 mmHg; in series [4] (5.0 mg/kg), 115 mmHg. Moreover, the “Live cells after treatment with decursinol” value in series [5] was at least 98%. Further, the “Expression level of phospho-PKC in high sugar” value in series [6] is “significantly decreased the increased expression level of phospho-PKC in high sugar in a dose-dependent manner”.
